Source: publication PMC5698301, “Dual Coating of Liposomes as Encapsulating Matrix of Antimicrobial Peptides: Development and Characterization” (Frontiers in Chemistry, 2017)
Peptide text beside a SMILES is read from it.

Key:
[1] = system: S. enteritidis; assay: Microtitration assay (critical dilution), activity in AU; assay type: cell-based, Salmonella enteritidis
Procedure: The second activity test was carried out using the same strain (S. enteritidis) in polystyrene 96-well micro-assay plates (Microtest, Becton–Dickinson Labware, MD, USA) as described by Ennaas et al. ([2016]). Briefly, fractions were added to microplates and diluted 2-folds with LB broth. Then, wells were seeded with ~1 × 10^4 CFU of strain per well using log-phase culture diluted in LB to 0.5–1.0 × 10^6 CFU ml^−1. The plates were incubated for 18 h at 37°C. After incubation, OD at 595 nm was measured using an Infinite® F200 PRO photometer (Tecan US Inc., Durham, NC). Antimicrobial activity results were expressed as arbitrary units per milliliter (AU ml^−1) that calculated as follows:
AU ml^−1 = (1,000/100) × 2 n, where n = number of inhibited wells.

[2] = system: pepsin; conditions: in all liposomal formulations; SGF with pepsin 3.2 mg/mL, 2 h, 37 ± 0.5°C, HPLC
Procedure: The dissolution experiment was performed according to Liu et al. ([2012]) with some modifications. Different samples were placed in a simulated gastric fluid for 2 h (SGF: 0.2 g of NaCl dissolved in 0.7 mL of HCl and filled up to 100 ml with distilled water then pepsin was added at a concentration of 3.2 mg/mL). Then, the dissolution was performed in simulated intestinal fluid (SIF: 6.8 g of potassium phosphate monobasic sodium hydroxide with a pH adjusted to 7.4 with 2N sodium hydroxide to a volume of 100 mL and a concentration of 0.2 mg/mL bovine bile extract), the pH was adjusted to 7.4. Pancreatin was added at a concentration of 20 mg/mL (equivalent to a protease activity of 500 U/mL). The dissolution was performed for 4 h at a temperature of 37 ± 0.5°C with stirring at 140 rpm. To perform the experiment 3 ml of the individual suspensions of liposomes was added to 3 mL of gastric fluid and samples of 500 μL of medium are removed at intervals of 1 h for the gastric fluid portion and at 0, 15, 30, 60, 120, 240 min during the intestinal dissolution. The contents MccJ25 samples were determined by HPLC. […] The blank was performed in similar conditions with a solution of non-encapsulated MccJ25.

SMILES: CC[C@H](C)[C@H](NC(=O)CNC(=O)[C@@H](NC(=O)[C@H](Cc1ccccc1)NC(=O)[C@H](Cc1ccc(O)cc1)NC(=O)[C@@H]1CCC(=O)NCC(=O)NCC(=O)N[C@@H](C)C(=O)NCC(=O)N[C@@H](Cc2c[nH]cn2)C(=O)N[C@@H](C(C)C)C(=O)N2CCC[C@H]2C(=O)N1)C(C)C)C(=O)NCC(=O)N[C@H](C(=O)N1CCC[C@H]1C(=O)N[C@H](C(=O)N[C@@H](CO)C(=O)N[C@@H](Cc1ccccc1)C(=O)N[C@@H](Cc1ccc(O)cc1)C(=O)NCC(=O)O)[C@@H](C)CC)[C@@H](C)O [MccJ25, microcin J25] (HELM PEPTIDE1{G.G.A.G.H.V.P.E.Y.F.V.G.I.G.T.P.I.S.F.Y.G}$PEPTIDE1,PEPTIDE1,1:R1-8:R3$$$V2.0; C-terminus assumed; bridges inferred)
- Specific activity (AU/mg) ([1]; activity per mg protein (Lowry method)): 181,352 AU/mg
- Inhibitory activity (AU/ml) ([1]; microtitration assay, S. enteritidis, 2-fold dilutions in LB, 18 h at 37°C, OD 595 nm): 524,288 AU/ml

SMILES: CC[C@H](C)[C@H](NC(=O)CNC(=O)[C@@H](NC(=O)[C@H](Cc1ccccc1)NC(=O)[C@H](Cc1ccc(O)cc1)NC(=O)[C@@H]1CCC(=O)NCC(=O)NCC(=O)N[C@@H](C)C(=O)NCC(=O)N[C@@H](Cc2cnc[nH]2)C(=O)N[C@@H](C(C)C)C(=O)N2CCC[C@H]2C(=O)N1)C(C)C)C(=O)NCC(=O)N[C@H](C(=O)N1CCC[C@H]1C(=O)N[C@H](C(=O)N[C@@H](CO)C(=O)N[C@@H](Cc1ccccc1)C(=O)N[C@@H](Cc1ccc(O)cc1)C(=O)NCC(=O)O)[C@@H](C)CC)[C@@H](C)O [MccJ25, microcin J25] (HELM PEPTIDE1{G.G.A.G.H.V.P.E.Y.F.V.G.I.G.T.P.I.S.F.Y.G}$PEPTIDE1,PEPTIDE1,1:R1-8:R3$$$V2.0)
- Resistance of MccJ25 to gastric digestion [2]: resisted gastric digestion
